Assay results: patent publication US7759331B2, “Pyridine-containing macroheterococylic compounds as kinase inhibitors” (Janssen Pharmaceutica NV, priority 2006, dated 2010)

Tests used:
Test in all cases: Protein kinase selectivity panel
Format in all cases: biochemical
Conditions in all cases: 1.0 μM compound, 10 μM ATP
IKKβ(h) = biological target: T1, IKKβ(h) (Homo sapiens, UniProt O14920)
T1 sequence (O14920 1-756): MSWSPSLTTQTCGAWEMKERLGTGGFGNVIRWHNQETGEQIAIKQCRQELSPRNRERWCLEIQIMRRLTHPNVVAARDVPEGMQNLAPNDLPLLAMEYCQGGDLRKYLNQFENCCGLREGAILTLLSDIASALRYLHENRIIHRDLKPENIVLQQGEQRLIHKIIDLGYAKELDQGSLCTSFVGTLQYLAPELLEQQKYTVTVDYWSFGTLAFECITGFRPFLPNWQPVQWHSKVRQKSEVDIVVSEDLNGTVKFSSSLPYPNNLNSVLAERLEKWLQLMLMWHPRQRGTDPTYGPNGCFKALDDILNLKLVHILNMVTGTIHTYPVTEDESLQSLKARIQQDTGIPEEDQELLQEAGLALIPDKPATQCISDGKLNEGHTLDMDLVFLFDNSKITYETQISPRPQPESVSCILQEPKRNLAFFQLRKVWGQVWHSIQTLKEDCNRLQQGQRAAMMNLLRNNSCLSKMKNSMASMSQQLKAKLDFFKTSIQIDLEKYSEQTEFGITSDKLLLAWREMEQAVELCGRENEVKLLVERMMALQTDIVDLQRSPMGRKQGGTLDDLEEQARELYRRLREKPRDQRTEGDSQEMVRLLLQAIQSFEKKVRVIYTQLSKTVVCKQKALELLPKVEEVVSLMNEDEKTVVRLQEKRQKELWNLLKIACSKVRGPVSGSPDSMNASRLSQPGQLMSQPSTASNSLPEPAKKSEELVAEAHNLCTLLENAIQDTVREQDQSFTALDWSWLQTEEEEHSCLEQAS
How it was run: (§1)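 At a fixed 1.0 μM compound, activity toward peptide or protein substrates was determined with ATP at 10 μM.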

ROCK-II(r) = ROCK-II(r) (Rattus norvegicus, UniProt Q62868)
How it was run: as §1

CHK1(h) = biological target: T2, CHK1(h) (Homo sapiens, UniProt O14757)
T2 sequence (O14757 1-476): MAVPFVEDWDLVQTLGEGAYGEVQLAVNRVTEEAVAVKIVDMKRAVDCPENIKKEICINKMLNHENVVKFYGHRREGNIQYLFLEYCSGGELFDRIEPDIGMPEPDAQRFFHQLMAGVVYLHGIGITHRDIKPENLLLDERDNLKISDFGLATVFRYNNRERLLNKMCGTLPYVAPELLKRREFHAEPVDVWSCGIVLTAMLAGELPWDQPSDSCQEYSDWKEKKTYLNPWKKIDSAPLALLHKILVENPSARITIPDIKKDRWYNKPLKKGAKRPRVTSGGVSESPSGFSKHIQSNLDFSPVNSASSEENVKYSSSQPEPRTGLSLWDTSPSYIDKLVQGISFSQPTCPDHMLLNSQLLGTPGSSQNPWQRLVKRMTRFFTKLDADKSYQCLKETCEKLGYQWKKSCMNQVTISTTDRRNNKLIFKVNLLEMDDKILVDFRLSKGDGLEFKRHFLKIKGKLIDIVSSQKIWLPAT
How it was run: as §1

PAR-1Bα(h) = PAR-1Bα(h) (Homo sapiens, UniProt Q7KZI7)
How it was run: as §1

PKD2(h) = biological target: T3, PKD2(h) (Homo sapiens, UniProt Q9BZL6)
T3 sequence (Q9BZL6 1-878): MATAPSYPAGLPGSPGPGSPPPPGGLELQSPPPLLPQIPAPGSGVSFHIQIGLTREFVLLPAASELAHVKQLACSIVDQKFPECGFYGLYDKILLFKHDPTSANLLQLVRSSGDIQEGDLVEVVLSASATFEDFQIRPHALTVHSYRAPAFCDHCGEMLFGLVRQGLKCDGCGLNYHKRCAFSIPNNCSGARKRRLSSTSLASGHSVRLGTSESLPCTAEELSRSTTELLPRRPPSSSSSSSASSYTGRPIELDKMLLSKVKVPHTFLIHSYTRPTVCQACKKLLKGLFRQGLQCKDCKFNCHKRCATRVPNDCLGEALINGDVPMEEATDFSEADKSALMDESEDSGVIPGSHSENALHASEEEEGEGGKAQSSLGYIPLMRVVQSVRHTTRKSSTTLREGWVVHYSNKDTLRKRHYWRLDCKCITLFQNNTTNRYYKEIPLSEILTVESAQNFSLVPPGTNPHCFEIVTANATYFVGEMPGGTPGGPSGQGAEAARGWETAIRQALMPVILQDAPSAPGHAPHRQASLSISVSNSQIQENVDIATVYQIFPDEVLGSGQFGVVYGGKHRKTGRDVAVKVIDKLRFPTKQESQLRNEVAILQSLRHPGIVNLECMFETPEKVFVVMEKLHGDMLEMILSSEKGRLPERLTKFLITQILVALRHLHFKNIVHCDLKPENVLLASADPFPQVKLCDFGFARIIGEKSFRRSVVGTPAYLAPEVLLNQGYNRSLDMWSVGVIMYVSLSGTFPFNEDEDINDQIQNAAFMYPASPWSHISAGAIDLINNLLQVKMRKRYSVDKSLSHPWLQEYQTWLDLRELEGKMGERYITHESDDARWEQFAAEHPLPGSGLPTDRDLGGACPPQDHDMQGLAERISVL
How it was run: as §1

Sequence of PAR-1Bα(h) (Q7KZI7 1-725 isoform Q7KZI7-4): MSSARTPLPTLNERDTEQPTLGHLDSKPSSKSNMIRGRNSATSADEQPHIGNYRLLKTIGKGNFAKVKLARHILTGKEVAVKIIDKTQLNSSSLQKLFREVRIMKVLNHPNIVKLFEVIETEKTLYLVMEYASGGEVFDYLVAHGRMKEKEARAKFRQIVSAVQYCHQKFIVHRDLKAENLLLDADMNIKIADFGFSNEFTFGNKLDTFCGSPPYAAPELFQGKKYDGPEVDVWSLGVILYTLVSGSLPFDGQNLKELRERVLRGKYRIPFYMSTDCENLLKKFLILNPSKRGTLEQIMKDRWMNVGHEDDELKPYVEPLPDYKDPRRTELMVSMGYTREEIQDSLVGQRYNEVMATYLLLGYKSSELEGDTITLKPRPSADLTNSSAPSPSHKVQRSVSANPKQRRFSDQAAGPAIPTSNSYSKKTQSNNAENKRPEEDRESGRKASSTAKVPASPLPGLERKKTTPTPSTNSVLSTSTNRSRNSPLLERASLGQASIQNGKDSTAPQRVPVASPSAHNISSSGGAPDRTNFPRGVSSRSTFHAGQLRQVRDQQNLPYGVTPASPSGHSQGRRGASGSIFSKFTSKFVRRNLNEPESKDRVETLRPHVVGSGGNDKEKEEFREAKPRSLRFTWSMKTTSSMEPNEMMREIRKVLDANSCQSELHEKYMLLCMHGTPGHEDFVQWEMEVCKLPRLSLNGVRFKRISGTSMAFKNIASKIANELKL
Sequence of ROCK-II(r) (Q62868 whole entry): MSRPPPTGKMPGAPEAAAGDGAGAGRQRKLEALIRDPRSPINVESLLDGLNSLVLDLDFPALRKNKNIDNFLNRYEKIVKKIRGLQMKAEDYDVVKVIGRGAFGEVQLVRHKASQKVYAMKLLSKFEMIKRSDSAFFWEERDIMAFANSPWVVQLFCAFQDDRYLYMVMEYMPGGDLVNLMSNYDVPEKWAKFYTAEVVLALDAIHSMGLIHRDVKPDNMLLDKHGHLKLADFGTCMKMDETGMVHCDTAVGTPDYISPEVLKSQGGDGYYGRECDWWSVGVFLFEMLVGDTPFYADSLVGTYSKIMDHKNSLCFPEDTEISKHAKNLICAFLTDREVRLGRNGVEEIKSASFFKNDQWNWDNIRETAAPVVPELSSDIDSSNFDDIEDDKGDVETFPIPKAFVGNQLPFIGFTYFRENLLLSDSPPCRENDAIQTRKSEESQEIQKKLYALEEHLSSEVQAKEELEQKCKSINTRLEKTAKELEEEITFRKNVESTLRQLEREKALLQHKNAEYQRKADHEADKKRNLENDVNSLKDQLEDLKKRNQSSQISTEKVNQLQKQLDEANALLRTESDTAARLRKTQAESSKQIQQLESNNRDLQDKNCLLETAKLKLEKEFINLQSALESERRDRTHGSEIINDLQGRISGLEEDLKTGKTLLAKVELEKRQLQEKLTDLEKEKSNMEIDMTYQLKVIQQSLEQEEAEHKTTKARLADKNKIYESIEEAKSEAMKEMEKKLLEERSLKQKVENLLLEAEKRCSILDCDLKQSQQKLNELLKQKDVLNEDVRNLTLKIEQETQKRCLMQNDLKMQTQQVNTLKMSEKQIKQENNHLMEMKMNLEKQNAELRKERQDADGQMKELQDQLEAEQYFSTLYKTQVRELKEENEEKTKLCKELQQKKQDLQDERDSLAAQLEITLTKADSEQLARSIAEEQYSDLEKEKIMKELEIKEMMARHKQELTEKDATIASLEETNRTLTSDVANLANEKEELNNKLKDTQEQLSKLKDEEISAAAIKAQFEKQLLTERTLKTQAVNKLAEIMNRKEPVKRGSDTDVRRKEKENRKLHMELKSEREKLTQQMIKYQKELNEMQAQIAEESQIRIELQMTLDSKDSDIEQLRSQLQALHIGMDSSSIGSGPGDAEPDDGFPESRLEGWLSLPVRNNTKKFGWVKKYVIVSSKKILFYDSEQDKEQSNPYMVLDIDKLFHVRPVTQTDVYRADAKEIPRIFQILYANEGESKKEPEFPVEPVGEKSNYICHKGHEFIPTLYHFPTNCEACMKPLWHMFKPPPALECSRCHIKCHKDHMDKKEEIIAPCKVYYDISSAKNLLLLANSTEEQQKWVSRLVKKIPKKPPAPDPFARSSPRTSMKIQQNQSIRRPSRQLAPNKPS

| Compound | Activity at Protein Kinase Assays (% of control), IKKβ(h) (IKKβ(h)) | Activity at Protein Kinase Assays (% of control), ROCK-II(r) (ROCK-II(r)) | Activity at Protein Kinase Assays (% of control), CHK1(h) (CHK1(h)) | Activity at Protein Kinase Assays (% of control), PAR-1Bα(h) (PAR-1Bα(h)) | Activity at Protein Kinase Assays (% of control), PKD2(h) (PKD2(h)) |
| --- | --- | --- | --- | --- | --- |
| CN(C)c1cc2cc(n1)CCCn1cc(c3ccccc31)C1=C(C(=O)NC1=O)c1cn(c3ccccc13)CCC2 [Cpd 2, 20-(dimethylamino)-4,14,19,26-tetraazaheptacyclo[24.6.1.1^7,14.1^18,22.0^2,6.0^8,13.0^27,32]pentatriaconta-1(33),2(6),7(35),8,10,12,18(34),19,21,27,29,31-dodecaene-3,5-dione] | 124 % of control | 92 % of control | 101 % of control | 100 % of control | 97 % of control |
| CN(C)c1nc2ccc1CCCCn1cc(c3ccccc31)C1=C(C(=O)NC1=O)c1cn(c3ccccc13)CCC2 [Cpd 1, 31-(dimethylamino)-5,15,25,32-tetraazaheptacyclo[28.2.2.1^5,12.1^18,25.0^6,11.0^13,17.0^19,24]hexatriaconta-1(32),6,8,10,12(36),13(17),18(35),19,21,23,30,33-dodecaene-14,16-dione] | 128 % of control | 101 % of control | 105 % of control | 94 % of control | 100 % of control |
| O=C1NC(=O)C2=C1c1cn(c3ccccc13)CCCc1ccc(c(N3CCCC3)n1)CCCn1cc2c2ccccc21 [Cpd 7, 31-pyrrolidin-1-yl-5,15,25,30-tetraazaheptacyclo[27.2.2.1^5,12.1^18,25.0^6,11.0^13,17.0^19,24]pentatriaconta-1(31),6,8,10,12(35),13(17),18(34),19,21,23,29,32-dodecaene-14,16-dione] | 130 % of control | 91 % of control | 106 % of control | 101 % of control | 115 % of control |
| O=C1NC(=O)C2=C1c1cn(c3ccccc13)CCCc1cc(nc(N3CCCC3)c1)CCCn1cc2c2ccccc21 [Cpd 6, 20-pyrrolidin-1-yl-4,14,19,26-tetraazaheptacyclo[24.6.1.1^7,14.1^18,22.0^2,6.0^8,13.0^27,32]pentatriaconta-1(33),2(6),7(35),8,10,12,18(34),19,21,27,29,31-dodecaene-3,5-dione] | 125 % of control | 83 % of control | 110 % of control | 96 % of control | 103 % of control |
